Experimental data published in ChEMBL document CHEMBL3301470, “MMV Malaria Box screening against Plasmodium falciparum Deoxyhypusine hydroxylase” (2015).

Target: T1, Deoxyhypusine hydroxylase (Plasmodium falciparum (isolate 3D7)) (UniProt Q8I701)
T1 sequence (whole entry): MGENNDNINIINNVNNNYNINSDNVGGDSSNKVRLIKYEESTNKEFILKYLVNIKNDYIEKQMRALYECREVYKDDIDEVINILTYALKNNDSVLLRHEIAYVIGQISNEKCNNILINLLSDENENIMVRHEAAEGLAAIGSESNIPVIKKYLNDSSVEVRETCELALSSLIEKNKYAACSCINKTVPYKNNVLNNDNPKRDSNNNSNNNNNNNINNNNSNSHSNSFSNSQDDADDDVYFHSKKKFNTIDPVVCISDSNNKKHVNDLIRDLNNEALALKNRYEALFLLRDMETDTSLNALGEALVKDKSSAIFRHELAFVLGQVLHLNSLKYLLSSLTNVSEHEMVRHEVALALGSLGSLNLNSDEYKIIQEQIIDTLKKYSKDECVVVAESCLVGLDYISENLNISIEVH
Assay: MMV: Deoxyhypusine hydroxylase activity assay.
Conditions: concentration not given here

inhibition	Compound
43.3%	CCOc1ccc(-c2nonc2NC(=O)c2cccc(C)c2)cc1OCC
38.8%	COc1ccc(-c2nc3cc(Cc4ccc5[nH]c(-c6ccc(OC)cc6)nc5c4)ccc3[nH]2)cc1
35.9%	c1ccc(Cn2c(N=Nc3c(Nc4ccccc4)ccc4ccccc34)nc3ccccc32)cc1
